These results are taken from PubChem BioAssay AID330 (DTP/NCI, 2004).

Where “and” joins values, the source holds several entries; their conditions need not be identical. Equal entries are not always repeated. Inconclusive results and toxic doses are left out.

This experiment relates to P388 leukemia ip, CD2F1 mice, survival T/C. The experiment can be described thus: NCI In Vivo Anticancer Drug Screen. Data for tumor model P388 Leukemia (intraperitoneal) in CD2F1 (CDF1) mice. The settings on record: endpoint: median survival time, higher = longer survival. The gist of the method:
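Mice carrying the transplanted tumor received test compound or vehicle. Survival was recorded in each group, and the value is the treated-group measurement divided by that of the vehicle-treated control group.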

Where [1] appears, read: dose: 100.0 mg/kg/injection, schedule: Q04DX003 (ip), vehicle: saline with Tween-80.
[2] abbreviates: dose: 200.0 mg/kg/injection, schedule: Q04DX003 (ip), vehicle: saline with Tween-80.
The mark [3] stands for this setting: dose: 400.0 mg/kg/injection, schedule: Q04DX003 (ip), vehicle: saline with Tween-80.
The mark [4] stands for this setting: dose: 60.0 mg/kg/injection, schedule: Q01DX005 (ip), vehicle: Klucel (hydroxypropylcellulose) (HPC).
Setting [5] is: dose: 120.0 mg/kg/injection, schedule: Q01DX005 (ip), vehicle: Klucel (hydroxypropylcellulose) (HPC).
[6] abbreviates: dose: 50.0 mg/kg/injection, schedule: Q01DX005 (ip), vehicle: saline with Tween-80.
Setting [7] is: dose: 100.0 mg/kg/injection, schedule: Q01DX005 (ip), vehicle: saline with Tween-80.
Where [8] appears, read: dose: 200.0 mg/kg/injection, schedule: Q01DX005 (ip), vehicle: saline with Tween-80.
Setting [9] is: dose: 50.0 mg/kg/injection, schedule: Q01DX005 (ip), vehicle: Klucel (hydroxypropylcellulose) (HPC).
Setting [10] is: dose: 50.0 mg/kg/injection, schedule: Q01DX005 (ip), vehicle: saline.
The mark [11] stands for this setting: dose: 100.0 mg/kg/injection, schedule: Q01DX005 (ip), vehicle: saline.
Where [12] appears, read: dose: 200.0 mg/kg/injection, schedule: Q01DX005 (ip), vehicle: saline.
[13] abbreviates: dose: 50.0 mg/kg/injection, schedule: Q01DX009 (ip), vehicle: Klucel (hydroxypropylcellulose) (HPC).
Where [14] appears, read: dose: 100.0 mg/kg/injection, schedule: Q01DX009 (ip), vehicle: Klucel (hydroxypropylcellulose) (HPC).

`CN(Cc1cnc2nc(N)nc(N)c2n1)c1c(Cl)cc(C(=O)NC(CCC(=O)O)C(=O)O)cc1Br` (stereo not drawn): the T/C by setting is: (dose: 0.3 mg/kg/injection, schedule: Q01DX003 (ip), vehicle: saline) 183 % of control; (dose: 0.4 mg/kg/injection, schedule: Q01DX003 (ip), vehicle: saline) 177 % of control; under setting [1], 170 % of control; under setting [2], 170 % of control; under setting [3], 162 % of control and 195 % of control; (dose: 600.0 mg/kg/injection, schedule: Q04DX003 (ip), vehicle: saline with Tween-80) 154 % of control.
Turning to `COC(=O)CC1SC(=S)N(Cc2ccc(Cl)cc2)C1=O` (stereo not drawn), the T/C runs as follows: under setting [4], 94 % of control; under setting [5], 90 % of control; (dose: 240.0 mg/kg/injection, schedule: Q01DX005 (ip), vehicle: Klucel (hydroxypropylcellulose) (HPC)) 90 % of control.
`O=c1/c(=C/c2ccc(/C=c3\sc4nc5ccccc5n4c3=O)cc2)sc2nc3ccccc3n12`: the T/C is 92 % of control under setting [6], 90 % of control under setting [7] and 95 % of control under setting [8].
`O=C1CCCCCCCCC1O` (stereo not drawn): the T/C by setting is: under setting [1], 106 % of control; under setting [2], 108 % of control; under setting [3], 110 % of control.
With `Cn1c(=O)c2c(ncn2-c2ccc(N)cn2)n(C)c1=O`, the T/C reads like this: (dose: 12.5 mg/kg/injection, schedule: Q01DX005 (ip), vehicle: distilled water + alcohol) 98 % of control; (dose: 25.0 mg/kg/injection, schedule: Q01DX005 (ip), vehicle: distilled water + alcohol) 104 % of control; under setting [9], 96 % of control; (dose: 50.0 mg/kg/injection, schedule: Q01DX005 (ip), vehicle: distilled water + alcohol) 100 % of control.
Regarding `COc1cc(C(=O)NC(=S)Nc2csc(-c3ccc(F)cc3)n2)cc(OC)c1OC`, the T/C is 100 % of control under setting [9]; 94 % of control (dose: 100.0 mg/kg/injection, schedule: Q01DX005 (ip), vehicle: Klucel (hydroxypropylcellulose) (HPC)); 90 % of control (dose: 200.0 mg/kg/injection, schedule: Q01DX005 (ip), vehicle: Klucel (hydroxypropylcellulose) (HPC)).
In the case of `COC1(CO)OCC(O)C(O)C1O` (stereo not drawn), the T/C reads like this: under setting [10], 91 % of control; under setting [11], 93 % of control; under setting [12], 101 % of control.
`COc1ccc(CN2COc3c(cc(C)c4cccnc34)C2)cc1`: the T/C runs as follows: (dose: 50.0 mg/kg/injection, schedule: Q01DX009 (ip), vehicle: saline with Tween-80) 98 % of control; (dose: 200.0 mg/kg/injection, schedule: Q01DX009 (ip), vehicle: saline with Tween-80) 111 % of control.
In the case of `CCN=C(Cl)N(C)c1ccccc1`, the T/C is, setting by setting: under setting [13], 100 % of control; under setting [14], 95 % of control.
In the case of `O=c1oc2ccccc2c(O)c1C=Nc1ccccc1`, the T/C runs as follows: (dose: 12.5 mg/kg/injection, schedule: Q01DX009 (ip), vehicle: saline with Tween-80) 89 % of control; (dose: 25.0 mg/kg/injection, schedule: Q01DX009 (ip), vehicle: saline with Tween-80) 88 % of control.
As for `CCCCCCCCCCCn1nnnc1N`, the T/C reads like this: under setting [6], 102 % of control; under setting [7], 93 % of control; under setting [8], 96 % of control.
For the compound `COc1ccc(C(=O)CCN(C)C)c2ccccc12`, the T/C is 102 % of control under setting [10], 100 % of control under setting [11] and 93 % of control under setting [12].
`COC(=O)c1nc(=S)[nH]c(C(=O)OC)c1C(=O)c1ccc(O)c(OC)c1`: the T/C was 104 % of control under setting [4] and 90 % of control under setting [5].
Regarding `CCCCONc1ccnc(=O)[nH]1`, the T/C runs as follows: (dose: 37.5 mg/kg/injection, schedule: Q01DX001 (ip), vehicle: saline) 100 % of control; (dose: 75.0 mg/kg/injection, schedule: Q01DX001 (ip), vehicle: saline) 100 % of control; (dose: 150.0 mg/kg/injection, schedule: Q01DX001 (ip), vehicle: saline) 107 % of control.
`CCCCCCCCCCCCCCCCN1CCS(=O)(=O)CC1`: the T/C reads like this: under setting [13], 108 % of control; under setting [14], 100 % of control and 98 % of control; (dose: 200.0 mg/kg/injection, schedule: Q01DX009 (ip), vehicle: Klucel (hydroxypropylcellulose) (HPC)) 101 % of control and 88 % of control.
For `CC(=O)CSc1ncnc2nc[nH]c12`, the T/C is 100 % of control under setting [1], 113 % of control under setting [2] and 109 % of control under setting [3].
